We go through 1 compound from patent US20230340498A1, “COMPOSITIONS AND METHODS FOR INDUCIBLE ALTERNATIVE SPLICING REGULATION OF GENE EXPRESSION” (The Children's Hospital of Philadelphia, priority 2020, published 2023).

For assay [1], the system named is Ai14 reporter genomic locus. Description: In vivo AAV8.Xon.SaCas9 editing of Ai14 reporter locus in liver. To be noted: Ai14 mice, PCR and tdTomato expression. The source says:
To assess the applicability of Xon for liver targeted therapies, AAV8.Xon.Epo and AAV8.Xon.SaCas9 vectors were generated and delivered to C57Bl6 and Ai14 reporter mice, respectively (FIGS. 7A, 7C, 7F).

Assay [2] has as its system SMN2-on minigene. Description: SMN2-on cassette Firefly luciferase reporter assay in transfected HEK293 cells. Type of assay: cell-based, Human. The method, then: Cell culture, transfection, and LMI070/RG7800 treatment. Human embryonic kidney (HEK293) cells (obtained from CHOP Research Vector Core stock) were maintained in DMEM media containing 10% Fetal Bovine Serum (FBS), 1% L-Glutamine and 1% penicillin/streptomycin at 37° C. with 5% CO2. Cells were cultured in 24 well plates and transfected at 80-90% confluence using Lipofectamine 2000 transfection reagent, according to the manufacturer’s protocol. For all experiments, 4 hours after plasmid transfection, cells were treated with LMI070 (MedChemExpress, HY-19620, suspended in DMSO) or RG7800 (MedChemExpress, HY-101792A, suspended in H2O) at the indicated concentrations. Cells were tested for mycoplasma by Research Vector Core. None of the cells used in the study were listed in ICLAC database of commonly misidentified cell lines.
In vitro luciferase assays. HEK293 cells were cultured in DMEM (10% FBS (v/v), 1% Pen/ Strep (v/v), and 1% L-glutamine (v/v) in a 24-well plate. At 70%-80% confluence, cells were co-transfected with the Xon.Firefly luciferase cassettes (0.3 µg/well) and a SV40p-Renilla luciferase cassette as transfection control (0.02 µg/well). Four hours after transfections cells were treated either with LMI070 or RG7800 at indicated concentrations. At 24 h after transfection, cells were rinsed with ice-cold PBS and Renilla and Firefly luciferase activities were assessed using the Dual-Luciferase Reporter Assay System (Promega) according to the manufacturer’s instructions. Luminescent readouts were obtained with a Monolight 3010 luminometer (Pharmigen). Relative light units (RLUs) were calculated as the quotient of […] RLUs and results expressed relative to mock treated control cells.
For this, SMN2-on cassettes were generated to provide drug-induced reporter gene expression. HEK293 cells were transfected with the SMN2-on expression cassettes and luciferase activity evaluated in response to varying doses of LMI070 or RG7800. […]

For assay [3], the system named is HEK293 cells. Description: Differential gene expression analysis (DESeq2) of LMI070 vs DMSO treated HEK293 cells. It counts as cell-based, Human. The procedure: Differential gene expression analysis was performed using DESeq2 to compare samples from the LMI070 and DMSO conditions (Love et al., 2014). To visualize the abundance of meaningfully differentially expressed genes, a volcano plot was generated with a .05 Benjamini-Hochberg adjusted p-value threshold and a 0.1 log fold change threshold.
The pseudoexons identified in LMI070 treated samples share a strong 3′ AGAGUA motif consistent with the previously identified U1 RNA binding site targeted by LMI070 (FIG. 2C) (Cheung et al., 2018). To experimentally validate the identified LMI070 induced splicing events, primer pairs binding the flanking exons of the top 5 candidate genes (FIGS. 2A and 2F-2J) were generated. […] The impact of LMI070 treatment on global gene expression was evaluated by assessing differential expression analysis.

[4] abbreviates: p < 0.05, Benjamin-Hochberg correction, LMI070 vs DMSO.

For `CC1(C)CC(Oc2ccc(-c3ccc(-c4cn[nH]c4)cc3O)nn2)CC(C)(C)N1` [LMI070, 5-(1H-Pyrazol-4-yl)-2-(6-((2,2,6,6-tetramethylpiperidin-4-yl)oxy)pyridazin-3-yl)phenol], the “editing of the Ai14 reporter genomic locus (liver)” value in assay [1] is “only observed on mice injected with AAV8.Xon.SaCas9 virus and treated with LMI070”. Besides, in assay [2] (HEK293 cells, varying doses), the “luciferase activity from the SMN2-on minigene” value is recorded as “induced luciferase activity”. Besides, in assay [2] (indSMN2 cassette, relative to DMSO treated cells (FIG. 1E: LMI070 100 nM)), the “overall induction of luciferase, refined SMN2-on switch system” value is recorded as “approximately 20 fold”. For the same compound, in assay [3] (filtered <0.1 fold), the “downregulated genes after filtering out low fold-change values” is 9 and the “upregulated genes after filtering out low fold-change values” amounted to 5. Besides, in assay [3] (setting [4]), the “downregulated genes passing the threshold for significance” value came out at 24 and the “upregulated genes passing the threshold for significance” value came to 6.
